The source of these data is paper PMC12727497, “Inhibition of IRAK4 by microbial trimethylamine blunts metabolic inflammation and ameliorates glycemic control” (Nature Metabolism, 2025).

This assay has as its target interleukin-1 receptor-associated kinase 4 (IRAK4) (Homo sapiens, UniProt Q9NWZ3). In words: biochemical.

Chain of interleukin-1 receptor-associated kinase 4 (IRAK4) (Q9NWZ3 whole entry): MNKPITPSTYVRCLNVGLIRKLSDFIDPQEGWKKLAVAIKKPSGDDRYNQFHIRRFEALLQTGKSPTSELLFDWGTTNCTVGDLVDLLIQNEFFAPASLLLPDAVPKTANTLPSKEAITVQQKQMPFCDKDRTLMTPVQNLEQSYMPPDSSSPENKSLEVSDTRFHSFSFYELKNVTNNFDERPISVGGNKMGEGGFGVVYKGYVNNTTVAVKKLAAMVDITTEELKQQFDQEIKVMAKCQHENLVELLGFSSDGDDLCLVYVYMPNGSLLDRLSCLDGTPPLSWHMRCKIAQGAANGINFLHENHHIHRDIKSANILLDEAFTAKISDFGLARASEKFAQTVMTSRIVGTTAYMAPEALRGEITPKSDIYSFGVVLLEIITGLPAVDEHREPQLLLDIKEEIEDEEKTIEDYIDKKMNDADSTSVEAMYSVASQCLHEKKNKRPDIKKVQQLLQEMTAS

As a reminder, the Kd is the equilibrium constant for the complex coming apart. On to `CN(C)C` [TMA, trimethylamine], for which the Kd came to 14 nM.
